Data on 42 compounds can be found in patent US20080300243A1, “Amide Derivatives as Ion-Channel Ligands and Pharmaceutical Compositions and Methods of Using the Same” (priority 2005, published 2008).

A short description of data set [1]: Half-life in human liver microsomes (HLM). Format: in vitro ADME. The following applies: human, human liver microsomes (HLM, HL101), pH 7.4; 1 μM compound, 0.78 mg/mL HLM, 37° C., NADPH. How it is done: Test compounds (1 μM) were incubated with 3.3 mM MgCl2 and 0.78 mg/mL HLM (HL101) in 100 mM potassium phosphate buffer (pH 7.4) at 37° C. on the 96-deep well plate. The reaction mixture was split into two groups, a non-P450 and a P450 group. NADPH was only added to the reaction mixture of the P450 group. An aliquot of samples of P450 group was collected at 0, 10, 30, and 60 min time point, where 0 min time point indicated the time when NADPH was added into the reaction mixture of P450 group. An aliquot of samples of non-P450 group was collected at −10 and 65 min time point. Collected aliquots were extracted with acetonitrile solution containing an internal standard. The precipitated protein was spun down in centrifuge (2000 rpm, 15 min). The compound concentration in supernatant was measured by LC/MS/MS system.
The half-life value was obtained by plotting the natural logarithm of the peak area ratio of compounds/internal standard versus time. The slope of the line of best fit through the points yields the rate of metabolism (k). This was converted to a half-life value using following equations:
Exemplary compounds of the invention were tested (1 μM), and were incubated with 3.3 mM MgCl2 and 0.78 mg/mL HLM (HL101) in 100 mM potassium phosphate buffer (pH 7.4) at 37° C. on the 96-deep well plate. The reaction mixture was split into two groups, a non-P450 and a P450 group. NADPH was only added to the reaction mixture of the P450 group. An aliquot of samples of the P450 group was collected at 0, 10, 30, and 60 minute time points, where the 0 minute time point indicated the time when NADPH was added into the reaction mixture of the P450 group. An aliquot of samples of the non-P450 group was collected at −10 and 65 minute time points. Collected aliquots were extracted with an acetonitrile solution containing an internal standard. The precipitated protein was spun down in a centrifuge (2000 rpm, 15 rain). The compound concentration in supernatant was measured by LC/MS/MS system. The half-life value (T1/2) was obtained by plotting the natural logarithm of the peak area ratio of compounds/internal standard versus time. The slope of the line of best fit through the points yields the rate of metabolism (k). This was converted to a half-life value using following equations: Half-life=ln 2/k.

The target of data set [2] is T1, VR1 (Homo sapiens, UniProt Q8NER1). Nature of the data set: Acid stimulation assay (FDSS 6000). The conditions noted are these: final assay buffer pH5.8, 15 min pre-incubation. Format: cell-based. Further details: host or cells: unspecified cell suspension. How it is done: The Acid-induced changes in the intracellular calcium concentration were monitored using FDSS 6000 (Hamamatsu Photonics, Japan), a fluorometric imaging system. The cell suspension in resting buffer (HBSS supplemented with […], pH 7.4) was pre-incubated with varying concentrations of the test compounds or resting buffer (buffer control) for 15 minutes at room temperature under dark conditions. The cells were automatically added the stimulating solution (HBSS supplemented with MES, final assay buffer pH5.8) by the FDSS 6000.
Target sequence in this assay (Q8NER1 whole entry, species assumed): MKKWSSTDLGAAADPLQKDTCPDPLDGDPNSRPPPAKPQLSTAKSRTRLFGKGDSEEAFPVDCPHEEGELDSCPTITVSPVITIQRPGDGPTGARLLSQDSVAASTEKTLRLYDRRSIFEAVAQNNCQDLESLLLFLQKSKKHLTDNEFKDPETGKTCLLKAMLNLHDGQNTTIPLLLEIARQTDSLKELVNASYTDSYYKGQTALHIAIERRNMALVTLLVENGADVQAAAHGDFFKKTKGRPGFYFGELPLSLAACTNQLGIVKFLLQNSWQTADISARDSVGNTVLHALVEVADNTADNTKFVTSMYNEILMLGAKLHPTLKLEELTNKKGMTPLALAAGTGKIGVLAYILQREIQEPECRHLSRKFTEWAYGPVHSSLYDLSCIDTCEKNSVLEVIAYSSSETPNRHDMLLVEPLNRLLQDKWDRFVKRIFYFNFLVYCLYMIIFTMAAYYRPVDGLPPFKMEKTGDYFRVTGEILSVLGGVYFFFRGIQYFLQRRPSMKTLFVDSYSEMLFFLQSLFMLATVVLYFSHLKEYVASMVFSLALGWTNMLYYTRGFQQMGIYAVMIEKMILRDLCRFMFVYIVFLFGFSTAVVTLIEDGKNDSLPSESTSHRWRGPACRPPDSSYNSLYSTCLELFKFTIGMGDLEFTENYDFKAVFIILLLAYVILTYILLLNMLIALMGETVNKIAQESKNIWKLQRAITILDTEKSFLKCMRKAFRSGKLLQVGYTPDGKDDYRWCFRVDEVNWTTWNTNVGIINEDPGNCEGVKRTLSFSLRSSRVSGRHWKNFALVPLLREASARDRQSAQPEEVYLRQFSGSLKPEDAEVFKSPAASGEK

Data set [3] deals with T1, VR1. The data set can be described thus: Calcium uptake assay, low pH (proton) stimulus. It is filed as cell-based. Also on record: expressed in transfected cells; host or cells: T-REx HEK 293 (Invitrogen), pcDNA5/TO vector. The following applies: HEK293; 0.3 μM compound; low pH agonist; HEK 293 cells expressing hVR1; read-out: Low pH % Inhib. @ 0.3 μM.
Target sequence in this assay (Q8NER1 whole entry): as the sequence (Q8NER1 whole entry, species assumed) above

In turn, `O=C(Nc1cccc2cnccc12)c1ccc(/C=C/C(F)(F)F)cc1` [Compound 35] showed a half-life at 1 μM in data set [1] of 0.49 h. This compound also registered an IC50 on VR1 [2] of 2.5 nM. Also, the inhibition at 0.3 µM at VR1 [3] is 106%.
For `CN1CCCc2ccc(NC(=O)c3ccc(C#CC(C)(C)C)cc3)cc21` [Compound 74], the half-life at 1 μM in data set [1] was 1.22 h. Also, on VR1 [3], the inhibition at 0.3 µM came out at 119%.
Regarding `CN1CCCc2ccc(NC(=O)c3ccc(/C=C/C(F)(F)F)cc3)cc21` [Compound 79], the half-life at 1 μM in data set [1] is 1.33 h. The inhibition at 0.3 µM on VR1 [3] stood at 98%.
Consider `C/C(=C\c1ccc(C(=O)Nc2cccc3cnccc23)cc1)C(F)(F)F` [Compound 89], for which the half-life at 1 μM in data set [1] is 0.53 h. Further, the inhibition at 0.3 µM on VR1 [3] is 92%.
Compound `C/C(=C\c1ccc(C(=O)Nc2ccc3c(c2)OCCN3)cc1)C(F)(F)F` [Compound 93] showed a half-life at 1 μM in data set [1] of 0.65 h. In addition, at VR1 [3], the inhibition at 0.3 µM worked out at 105%.
On to `O=C(Nc1ccc2c(c1)OCCN2)c1ccc(C#CC2CC2)c(OCC2CC2)c1` [Compound 94], for which, in data set [1], the half-life at 1 μM was 0.48 h. Further, at VR1 [3], the inhibition at 0.3 µM was found to be 85%.
The compound `CC(C)(C)C#Cc1ncc(C(=O)Nc2ccc3c(c2)OCCN3)cn1` [Compound 95] showed a half-life at 1 μM in data set [1] of 0.3 h. Also, the inhibition at 0.3 µM on VR1 [3] was 102%.
Turning to `O=C(Nc1ccc2c(c1)OC[C@H](CO)O2)c1ccc(C#CC2CC2)cc1` [Compound 103], the half-life at 1 μM in data set [1] is 0.31 h. Moreover, at VR1 [3], the inhibition at 0.3 µM came out at 92%.
Consider `O=C(Nc1ccc2c(c1)OC[C@@H](CO)O2)c1ccc(C#CC2CC2)cc1` [Compound 104], for which the half-life at 1 μM in data set [1] is 0.28 h. For the same compound, the inhibition at 0.3 µM on VR1 [3] turned out to be 91%.
On VR1 [2], `O=C(Nc1ccc2c(c1)OC[C@@H](CO)O2)c1ccc(/C=C/C(F)(F)F)cc1` [Compound 107] gave an IC50 of 5 nM. Moreover, the inhibition at 0.3 µM at VR1 [3] was 116%.
`O=C(Nc1ccc2c(c1)OCC(CO)N2)c1ccc(/C=C/C(F)(F)F)cc1` (centres unmarked) [Compound 111] had a half-life at 1 μM in data set [1] of 0.75 h. Besides, at VR1 [2], the IC50 worked out at 5 nM. Further, the inhibition at 0.3 µM at VR1 [3] is 116%.
As for `O=C(Nc1ccc2c(c1)OCC(CO)O2)c1ccc(C#CC2CCCC2)cc1` (centres unmarked) [Compound 112], the half-life at 1 μM in data set [1] is 0.8 h. Also, the inhibition at 0.3 µM on VR1 [3] was 88%.
As for `COc1cc(/C=C/C(F)(F)F)ccc1C(=O)Nc1ccc2c(c1)OCCN2` [Compound 122], the half-life at 1 μM in data set [1] is 1.25 h. Also, the inhibition at 0.3 µM on VR1 [3] was 19%.
With `COc1cc(/C=C/C(F)(F)F)ccc1C(=O)Nc1ccc2c(c1)OCCO2` [Compound 123], in data set [1], the half-life at 1 μM was 1.88 h. Moreover, on VR1 [3], the inhibition at 0.3 µM was found to be 19%.
The corresponding values for `Cc1cc(C#CC2CC2)ccc1C(=O)Nc1ccc2c(c1)OCC(CO)N2` (centres unmarked) [Compound 124] are 1.01 h and 112%.
`Cc1cc(C#CC2CCCC2)ccc1C(=O)Nc1ccc2c(c1)OCC(CO)N2` (centres unmarked) [Compound 125] gave a half-life at 1 μM in data set [1] of 0.67 h. For the same compound, the inhibition at 0.3 µM on VR1 [3] came to 112%.
Turning to `O=C(Nc1ccc2c(c1)OCC(CO)N2)c1ccc(C#CC2CCCC2)cc1F` (centres unmarked) [Compound 126], the half-life at 1 μM in data set [1] was 1.86 h. In addition, on VR1 [3], the inhibition at 0.3 µM was 96%.
On to `O=C(Nc1ccc2c(c1)OCC(CO)N2)c1c(F)cc(C#CC2CC2)cc1F` (centres unmarked) [Compound 129], for which the half-life at 1 μM in data set [1] was 1.72 h. In addition, the inhibition at 0.3 µM at VR1 [3] amounted to 104%.
In turn, `Cc1cc(/C=C/C(F)(F)F)ccc1C(=O)Nc1ccc2c(c1)OCC(CO)N2` (centres unmarked) [Compound 131] showed a half-life at 1 μM in data set [1] of 1.97 h. Also, on VR1 [3], the inhibition at 0.3 µM worked out at 104%.
Taken in the same sequence, the figures for `O=C(Nc1ccc2c(c1)OCCN2)c1ccc(/C=C/C(F)(F)F)cc1F` [Compound 134] were 1.56 h and 108%.
At VR1 [2], `CC(C)(C)C#Cc1ccc(C(=O)Nc2ccc3c(c2)OCC(CO)N3)c(F)c1` (centres unmarked) [Compound 138] had an IC50 of 3 nM. Also, on VR1 [3], the inhibition at 0.3 µM is 107%.
Take `O=C(Nc1ccc2c(c1)OCC(CO)N2)c1ccc(/C=C/C(F)(F)F)cc1F` (centres unmarked) [Compound 144]: the half-life at 1 μM in data set [1] is 1.18 h. Also, the inhibition at 0.3 µM on VR1 [3] was determined as 105%.
On to `O=C(Nc1ccc2c(c1)OCC(CO)N2)c1ccc(/C=C/C(F)(F)F)cc1Cl` (centres unmarked) [Compound 157], for which the half-life at 1 μM in data set [1] was 1.37 h. Besides, the inhibition at 0.3 µM at VR1 [3] was found to be 107%.
In data set [1], `CC(C)(C)C#Cc1ccc(C(=O)Nc2ccc3c(c2)OCC(CO)N3)c(Cl)c1` (centres unmarked) [Compound 158] had a half-life at 1 μM of 1.43 h. Further, at VR1 [3], the inhibition at 0.3 µM came to 107%.
Compound `O=C(Nc1cccc2cnccc12)c1ccc(/C=C/C(F)(F)F)cc1F` [Compound 160] had a half-life at 1 μM in data set [1] of 0.58 h. The inhibition at 0.3 µM at VR1 [3] was 96%.
`Cc1nc2cc(NC(=O)c3ccc(C#CC(C)(C)C)cc3C)ccc2s1` [Compound 162] gave a half-life at 1 μM in data set [1] of 1.43 h. The inhibition at 0.3 µM at VR1 [3] is 89%.
Taken in the same sequence, the figures for `Cc1cc(C#CC(C)(C)C)ccc1C(=O)Nc1cccc2cnccc12` [Compound 163] were 1.16 h and 98%.
Regarding `CC(C)(C)C#Cc1ccc(C(=O)Nc2cnc3ccccc3c2)c(Cl)c1` [Compound 164], the half-life at 1 μM in data set [1] is 2.03 h. Moreover, the inhibition at 0.3 µM at VR1 [3] was 105%.
For the compound `CC(C)(C)C#Cc1cc(F)c(C(=O)Nc2cccc3cnccc23)c(F)c1` [Compound 166], at VR1 [2], the IC50 stood at 8 nM. For the same compound, at VR1 [3], the inhibition at 0.3 µM is 99%.
For `CC(C)(C)C#Cc1ccc(C(=O)Nc2ccc3c(c2)OC[C@@H](CO)N3)c(F)c1` [Compound 170], the IC50 against VR1 [2] was 3 nM. The inhibition at 0.3 µM on VR1 [3] amounted to 108%.
With `COc1c(C#CC(C)(C)C)ccc(C(=O)Nc2cccc3cnccc23)c1F` [Compound 176], the 50% inhibitory concentration (IC50) at VR1 [2] was 4 nM. The inhibition at 0.3 µM on VR1 [3] was determined as 89%.
In data set [1], `Cc1cc(C#CC(C)(C)C)ccc1C(=O)Nc1cnc2ccccc2c1` [Compound 181] gave a half-life at 1 μM of 1.02 h. Also, the inhibition at 0.3 µM on VR1 [3] was 102%.
In data set [1], `Cc1cc(C#CC(C)(C)C)ccc1C(=O)Nc1ccc2c(c1)OC[C@@H](CO)N2` [Compound 184] showed a half-life at 1 μM of 0.64 h. Moreover, the inhibition at 0.3 µM on VR1 [3] amounted to 102%.
`Cc1nc2cc(NC(=O)c3ccc(/C=C/C(F)(F)F)cc3C)ccc2s1` [Compound 188]: the half-life at 1 μM in data set [1] is 1.34 h. The inhibition at 0.3 µM at VR1 [3] was 83%.
The compound `O=C(Nc1ccc2c(c1)OC[C@H](CO)N2)c1ccc(/C=C/C(F)(F)F)cc1F` [Compound 193] returned an IC50 against VR1 [2] of 3 nM. Further, at VR1 [3], the inhibition at 0.3 µM is 103%.
`Cc1cc(C#CC(C)(C)C)ccc1C(=O)Nc1ccc2c(c1)OC[C@H](CO)N2` [Compound 194] came in with an IC50 on VR1 [2] of 3 nM. Also, at VR1 [3], the inhibition at 0.3 µM was 102%.
For the compound `Cc1cc(/C=C/C(F)(F)F)ccc1C(=O)Nc1ccc2c(c1)OC[C@H](CO)N2` [Compound 195], the IC50 against VR1 [2] was 3 nM. For the same compound, the inhibition at 0.3 µM on VR1 [3] is 60%.
Taken in the same sequence, the figures for `Cc1cc(C#CC(C)(C)C)ccc1C(=O)Nc1ccc2sc(CO)nc2c1` [Compound 197, N-(2-(hydroxymethyl)benzo[d]thiazol-5-yl)-2-methyl-4-(3,3-dimethylbut-1-ynyl)benzamide] were 3 nM and 107%.
Compound `Cc1cc(C#CC(C)(C)C)ccc1C(=O)Nc1ccc2scnc2c1` [Compound 198, N-(benzo[d]thiazol-5-yl)-2-methyl-4-(3,3-dimethylbut-1-ynyl)benzamide] had an IC50 on VR1 [2] of 3 nM. For the same compound, the inhibition at 0.3 µM at VR1 [3] came to 101%.
`Cc1cc(/C=C/C(C)(C)C)ccc1C(=O)Nc1cnc2ccccc2c1` [Compound 210] had an IC50 against VR1 [2] of 3 nM. Besides, the inhibition at 0.3 µM on VR1 [3] turned out to be 106%.
On VR1 [2], `Cc1cc(C#CC(C)(C)C)ccc1C(=O)Nc1ccc2[nH]cnc2c1` [Compound 214] came in with an IC50 of 3 nM. For the same compound, on VR1 [3], the inhibition at 0.3 µM turned out to be 74%.
`Cc1cc(/C=C/C(F)(F)F)ccc1C(=O)Nc1ccc2cc(CO)cnc2c1` [Compound 228] showed a half-life at 1 μM in data set [1] of 1.27 h. Also, the inhibition at 0.3 µM at VR1 [3] amounted to 100%.

As a reminder, the half-life is the time needed for the level to fall by half in the phase considered. A lower half-life goes with fast loss. What is called IC50 is the midpoint of a concentration-inhibition curve. Low readings indicate higher potency, high ones lower potency.
